18 molecules from the supplement of paper PMC8967900 can be followed below.
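Also: ALL cell lines in 384-well plates, five doses spanning 10,000-fold, each plate scaled between vehicle and 100 µmol/L benzalkonium chloride controls, sDSS an adapted area-under-curve metric.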

The subject of one assay is PEER. Briefly: selective drug sensitivity score (sDSS, relative to normal bone marrow) (sDSS (score)); higher = more potent and effective on the cell line relative to normal bone marrow cells. To be noted: 72 h.
With `C/C=C1\NC(=O)[C@H]2CSSCC/C=C/[C@H](CC(=O)N[C@H](C(C)C)C(=O)N2)OC(=O)[C@H](C(C)C)NC1=O` [Romidepsin] (top concentration 1000 nM), the “selective drug sensitivity score” value worked out at 2.06.
In the case of `CN(C)CCOc1ccc(/C(=C(/CCCl)c2ccccc2)c2ccccc2)cc1` [Toremifene] (top concentration 10000 nM), the “selective drug sensitivity score” value amounted to 1.28.
As for `CCCCc1nc2cc(/C=C/C(=O)NO)ccc2n1CCN(CC)CC` [Pracinostat] (top concentration 10000 nM), the “selective drug sensitivity score” value was determined as 3.98.
Still for that read-out and setting: for `Cn1ncc(Cl)c1-c1cc(C(=O)N[C@H](CN)Cc2cccc(F)c2)sc1Cl` [Afuresertib] (top concentration 1000 nM) the value was -1.34; for `Cc1cc(-c2nc(-c3ccc(OC(F)(F)F)cc3)no2)nn1Cc1ccnc(N2CCN(C3CC3)CC2)c1` [BAY_87-2243] (top concentration 1000 nM), 27.4; for `CNc1nc(-c2ccc3c(N)n[nH]c3c2)cc(N2C[C@@H](C(=O)NC3CCCCC3)CC[C@H]2C)n1` (top concentration 10000 nM), -0.14.
`CN1CC[C@H](c2c(O)cc(O)c3c(=O)cc(-c4ccccc4Cl)oc23)[C@H](O)C1` [Alvocidib] (top concentration 10000 nM): the “selective drug sensitivity score” value is -2.1.
Same read-out and setting: with `Cc1cc2c(C(C)C)c(O)c(O)c(C=O)c2c(O)c1-c1c(C)cc2c(C(C)C)c(O)c(O)c(C=O)c2c1O` [AT-101] (top concentration 100000 nM) the figure was 4.18; with `Cc1ccc(C(=O)Nc2cccc(C(F)(F)F)c2)cc1Nc1nc(-c2cccnc2)nc2c1cnn2C` [NVP-BHG712] (top concentration 10000 nM), 8.18; with `COC[C@H](NC(=O)c1cnc(C)s1)C(=O)N[C@@H](COC)C(=O)N[C@@H](Cc1ccccc1)C(=O)[C@@]1(C)CO1` [Oprozomib] (top concentration 2500 nM), 12.5.
Still for that read-out and setting: for `Cc1ccc(C(=O)N(CCCN)[C@@H](c2oc3cc(Cl)ccc3c(=O)c2Cc2ccccc2)C(C)C)cc1` (top concentration 100 nM) the value was 4.96; for `CCn1c(C(=O)N(C2CC2)C2CC2)cc2c3c(ncn3C)c(Nc3cc(C)n(C)n3)nc21` (top concentration 10000 nM), -4.36; for `Nc1nc(Cl)nc2c1ncn2[C@@H]1O[C@H](CO)[C@@H](O)[C@@H]1F` [Clofarabine] (top concentration 10000 nM), -5.9.
Turning to `Cc1ccc(C(=O)Nc2ccc(Oc3cc4cnn(C)c4cc3-c3cn[nH]c3)c(F)c2)c(=O)n1-c1ccc(F)cc1` [Merestinib] (top concentration 1000 nM), the “selective drug sensitivity score” value was -0.22.
Turning to `Nc1ncn([C@@H]2O[C@H](CO)[C@@H](O)[C@H]2O)c(=O)n1` [Azacitidine] (top concentration 10000 nM), the “selective drug sensitivity score” value came out at 6.64.
As for `CC(C)c1cc(-c2n[nH]c(=O)n2-c2ccc3c(ccn3C)c2)c(O)cc1O` [Ganetespib] (top concentration 1000 nM), the “selective drug sensitivity score” value was -1.86.
On the same count and under the same terms, for `C[C@]1(c2nc3c(C(N)=O)cccc3[nH]2)CCCN1` [Veliparib] (top concentration 10000 nM) the value was -4.18; for `CC(=O)Nc1cccc(-n2c(=O)n(C3CC3)c(=O)c3c(Nc4ccc(I)cc4F)n(C)c(=O)c(C)c32)c1` [Trametinib] (top concentration 250 nM), -4.44.

A further assay has as its system PF-382. The assay is described as above. To be noted: 72 h.
Take `C/C=C1\NC(=O)[C@H]2CSSCC/C=C/[C@H](CC(=O)N[C@H](C(C)C)C(=O)N2)OC(=O)[C@H](C(C)C)NC1=O` [Romidepsin] (top concentration 1000 nM): the “selective drug sensitivity score” value is 1.96.
Turning to `CN(C)CCOc1ccc(/C(=C(/CCCl)c2ccccc2)c2ccccc2)cc1` [Toremifene] (top concentration 10000 nM), the “selective drug sensitivity score” value came out at 1.08.
The same measure, in the same setting: with `CCCCc1nc2cc(/C=C/C(=O)NO)ccc2n1CCN(CC)CC` [Pracinostat] (top concentration 10000 nM) the figure was 3.38; with `Cn1ncc(Cl)c1-c1cc(C(=O)N[C@H](CN)Cc2cccc(F)c2)sc1Cl` [Afuresertib] (top concentration 1000 nM), 2.66; with `Cc1cc(-c2nc(-c3ccc(OC(F)(F)F)cc3)no2)nn1Cc1ccnc(N2CCN(C3CC3)CC2)c1` [BAY_87-2243] (top concentration 1000 nM), 16.9.
Turning to `CNc1nc(-c2ccc3c(N)n[nH]c3c2)cc(N2C[C@@H](C(=O)NC3CCCCC3)CC[C@H]2C)n1` (top concentration 10000 nM), the “selective drug sensitivity score” value is 2.76.
The same measure, in the same setting: with `CN1CC[C@H](c2c(O)cc(O)c3c(=O)cc(-c4ccccc4Cl)oc23)[C@H](O)C1` [Alvocidib] (top concentration 10000 nM) the figure was -3.3.
Still for that read-out and setting: for `Cc1cc2c(C(C)C)c(O)c(O)c(C=O)c2c(O)c1-c1c(C)cc2c(C(C)C)c(O)c(O)c(C=O)c2c1O` [AT-101] (top concentration 100000 nM) the value was 1.98.
Consider `Cc1ccc(C(=O)Nc2cccc(C(F)(F)F)c2)cc1Nc1nc(-c2cccnc2)nc2c1cnn2C` [NVP-BHG712] (top concentration 10000 nM), for which the “selective drug sensitivity score” value amounted to 3.38.
For the molecule `COC[C@H](NC(=O)c1cnc(C)s1)C(=O)N[C@@H](COC)C(=O)N[C@@H](Cc1ccccc1)C(=O)[C@@]1(C)CO1` [Oprozomib] (top concentration 2500 nM), the “selective drug sensitivity score” value was found to be 11.3.
The same measure, in the same setting: for `Cc1ccc(C(=O)N(CCCN)[C@@H](c2oc3cc(Cl)ccc3c(=O)c2Cc2ccccc2)C(C)C)cc1` (top concentration 100 nM) the value was 0.86; for `CCn1c(C(=O)N(C2CC2)C2CC2)cc2c3c(ncn3C)c(Nc3cc(C)n(C)n3)nc21` (top concentration 10000 nM), -4.36.
Consider `Nc1nc(Cl)nc2c1ncn2[C@@H]1O[C@H](CO)[C@@H](O)[C@@H]1F` [Clofarabine] (top concentration 10000 nM), for which the “selective drug sensitivity score” value came to 1.8.
Same read-out and setting: for `Cc1ccc(C(=O)Nc2ccc(Oc3cc4cnn(C)c4cc3-c3cn[nH]c3)c(F)c2)c(=O)n1-c1ccc(F)cc1` [Merestinib] (top concentration 1000 nM) the value was -0.62.
Same read-out and setting: for `Nc1ncn([C@@H]2O[C@H](CO)[C@@H](O)[C@H]2O)c(=O)n1` [Azacitidine] (top concentration 10000 nM) the value was 4.44; for `CC(C)c1cc(-c2n[nH]c(=O)n2-c2ccc3c(ccn3C)c2)c(O)cc1O` [Ganetespib] (top concentration 1000 nM), 1.64; for `C[C@]1(c2nc3c(C(N)=O)cccc3[nH]2)CCCN1` [Veliparib] (top concentration 10000 nM), -4.08.
With `CC(=O)Nc1cccc(-n2c(=O)n(C3CC3)c(=O)c3c(Nc4ccc(I)cc4F)n(C)c(=O)c(C)c32)c1` [Trametinib] (top concentration 250 nM), the “selective drug sensitivity score” value was -5.44.

A further assay relates to RPMI-8402. The description is as above. To be noted: 72 h.
With `C/C=C1\NC(=O)[C@H]2CSSCC/C=C/[C@H](CC(=O)N[C@H](C(C)C)C(=O)N2)OC(=O)[C@H](C(C)C)NC1=O` [Romidepsin] (top concentration 1000 nM), the “selective drug sensitivity score” value turned out to be 1.66.
On the same count and under the same terms, for `CN(C)CCOc1ccc(/C(=C(/CCCl)c2ccccc2)c2ccccc2)cc1` [Toremifene] (top concentration 10000 nM) the value was 0.58.
Same read-out and setting: with `CCCCc1nc2cc(/C=C/C(=O)NO)ccc2n1CCN(CC)CC` [Pracinostat] (top concentration 10000 nM) the figure was 5.08; with `Cn1ncc(Cl)c1-c1cc(C(=O)N[C@H](CN)Cc2cccc(F)c2)sc1Cl` [Afuresertib] (top concentration 1000 nM), 1.16; with `Cc1cc(-c2nc(-c3ccc(OC(F)(F)F)cc3)no2)nn1Cc1ccnc(N2CCN(C3CC3)CC2)c1` [BAY_87-2243] (top concentration 1000 nM), 28.
Still for that read-out and setting: for `CNc1nc(-c2ccc3c(N)n[nH]c3c2)cc(N2C[C@@H](C(=O)NC3CCCCC3)CC[C@H]2C)n1` (top concentration 10000 nM) the value was -0.14.
`CN1CC[C@H](c2c(O)cc(O)c3c(=O)cc(-c4ccccc4Cl)oc23)[C@H](O)C1` [Alvocidib] (top concentration 10000 nM): the “selective drug sensitivity score” value is -1.
As for `Cc1cc2c(C(C)C)c(O)c(O)c(C=O)c2c(O)c1-c1c(C)cc2c(C(C)C)c(O)c(O)c(C=O)c2c1O` [AT-101] (top concentration 100000 nM), the “selective drug sensitivity score” value came out at 1.88.
Still for that read-out and setting: with `Cc1ccc(C(=O)Nc2cccc(C(F)(F)F)c2)cc1Nc1nc(-c2cccnc2)nc2c1cnn2C` [NVP-BHG712] (top concentration 10000 nM) the figure was 5.08.
